Test results as given in US20260232767A1, “INTERLEUKIN-23 RECEPTOR ANTAGONIST PEPTIDES FOR USE IN THE TREATMENT OF PSORIASIS” (Janssen Pharmaceutica NV, priority 2023, published 2026).

Tested on: subjects with moderate-to-severe plaque psoriasis
Test: Safety, adverse events, Example 2 through Week 56
Format: in vivo, human
Conditions: Placebo → 100 mg QD
Text: The LTE safety analysis was based on randomized participants in Example who entered the present long-term extension study and received at least one dose of study intervention (including a partial dose) during the study period.

CC(=O)NCCCC[C@@H]1NC(=O)[C@H](Cc2c[nH]c3c(C)cccc23)NC(=O)[C@H]([C@@H](C)O)NC(=O)[C@H](CC(N)=O)NC(=O)[C@@H](NC(C)=O)C(C)(C)SSC(C)(C)[C@@H](C(=O)N[C@@H](Cc2ccc(OCCN)cc2)C(=O)N[C@@H](Cc2ccc3ccccc3c2)C(=O)NC2(C(=O)N[C@@H](CCC(=O)O)C(=O)N[C@@H](CC(N)=O)C(=O)N[C@@H](Cc3cccnc3)C(=O)N(C)CC(N)=O)CCOCC2)NC1=O [IL-23 receptor antagonist peptide, Ac-[Pen]*-N-T-[W(7-Me)]-[Lys(Ac)]-[Pen]*-Phe[4-(2-aminoethoxy)]-[2-Nal]-[THP]-E-N-[3-Pal]-Sarc-NH2 (*[Pen]-[Pen]* formdisulfidebond)]
0: Subjects with serious adverse event: Ventricular dysfunction (LTE Safety analysis set) | Subjects with 1 or more treatment-emergent adverse events leading to discontinuation of study agent (Week 16-56) | Subjects with AE leading to discontinuation: Alanine aminotransferase increased (Week 16-56) | Subjects with AE leading to discontinuation: Aspartate aminotransferase increased (Week 16-56) | Subjects with AE leading to discontinuation: Asthenia (Week 16-56) | Subjects with AE leading to discontinuation: Chills (Week 16-56) | Subjects with AE leading to discontinuation: Ear and labyrinth disorders (Week 16-56) | Subjects with AE leading to discontinuation: Gamma-glutamyltransferase increased (Week 16-56) | Subjects with AE leading to discontinuation: Gastrointestinal disorders (Week 16-56) | Subjects with AE leading to discontinuation: General disorders and administration site conditions (Week 16-56) | Subjects with AE leading to discontinuation: Headache (Week 16-56) | Subjects with AE leading to discontinuation: Insomnia (Week 16-56) | Subjects with AE leading to discontinuation: Investigations (Week 16-56) | Subjects with AE leading to discontinuation: Nervous system disorders (Week 16-56) | Subjects with AE leading to discontinuation: Proctalgia (Week 16-56) | Subjects with AE leading to discontinuation: Psoriasis (Week 16-56) | Subjects with AE leading to discontinuation: Psychiatric disorders (Week 16-56) | Subjects with AE leading to discontinuation: Skin and subcutaneous tissue disorders (Week 16-56) | Subjects with AE leading to discontinuation: Vertigo (Week 16-56) | Subjects with AE leading to discontinuation: Vomiting (Week 16-56) | Subjects with treatment-emergent AE: Headache (Week 16-56) | Subjects with treatment-emergent AE: Meniscus injury (Week 16-56) | Subjects with treatment-emergent AE: Sinusitis (Week 16-56) | Subjects with treatment-emergent AE: Vomiting (Week 16-56) | Subjects with treatment-emergent serious AE: Cardiac disorders (Week 16-56) | Subjects with treatment-emergent serious AE: Coronary artery disease (Week 16-56) | Subjects with treatment-emergent serious AE: Diverticulitis (Week 16-56) | Subjects with treatment-emergent serious AE: Foot deformity (Week 16-56) | Subjects with treatment-emergent serious AE: General disorders and administration site conditions (Week 16-56) | Subjects with treatment-emergent serious AE: Infections and infestations (Week 16-56) | Subjects with treatment-emergent serious AE: Injury, poisoning and procedural complications (Week 16-56) | Subjects with treatment-emergent serious AE: Intervertebral disc protrusion (Week 16-56) | Subjects with treatment-emergent serious AE: Ligament injury (Week 16-56) | Subjects with treatment-emergent serious AE: Musculoskeletal and connective tissue disorders (Week 16-56) | Subjects with treatment-emergent serious AE: Neoplasms benign, malignant and unspecified (incl cysts and polyps) (Week 16-56) | Subjects with treatment-emergent serious AE: Non-cardiac chest pain (Week 16-56) | Subjects with treatment-emergent serious AE: Respiratory, thoracic and mediastinal disorders (Week 16-56) | Subjects with treatment-emergent serious AE: Tonsillar hypertrophy (Week 16-56) | Subjects with treatment-emergent serious AE: Uterine leiomyoma (Week 16-56) | Subjects with treatment-emergent serious AE: Ventricular dysfunction (Week 16-56) | Acrochordon: number of subjects (through Week 56) | Actinic keratosis: number of subjects (through Week 56) | Alopecia: number of subjects (through Week 56) | Asthenia: number of subjects (through Week 56) | Asthma: number of subjects (through Week 56) | Atrioventricular block first degree: number of subjects (through Week 56) | Basal cell carcinoma: number of subjects (through Week 56) | Blood and lymphatic system disorders: number of subjects (through Week 56) | Bronchitis chronic: number of subjects (through Week 56) | Bundle branch block right: number of subjects (through Week 56) | Cardiac disorders: number of subjects (through Week 56) | Chills: number of subjects (through Week 56) | Cholelithiasis: number of subjects (through Week 56) | Chronic obstructive pulmonary disease: number of subjects (through Week 56) | Coronary artery disease: number of subjects (through Week 56) | Cough: number of subjects (through Week 56) | Decreased appetite: number of subjects (through Week 56) | Depression: number of subjects (through Week 56) | Dermal cyst: number of subjects (through Week 56) | Dermatitis contact: number of subjects (through Week 56) | Diabetes mellitus: number of subjects (through Week 56) | Diffuse alopecia: number of subjects (through Week 56) | Ear and labyrinth disorders: number of subjects (through Week 56) | Endocrine disorders: number of subjects (through Week 56) | Eyelid skin dryness: number of subjects (through Week 56) | Fatigue: number of subjects (through Week 56) | General disorders and administration site conditions: number of subjects (through Week 56) | Goiter: number of subjects (through Week 56) | Hypercholesterolemia: number of subjects (through Week 56) | Hyperglycemia: number of subjects (through Week 56) | Hyperlipidemia: number of subjects (through Week 56) | Hypertriglyceridemia: number of subjects (through Week 56) | Hypoacusis: number of subjects (through Week 56) | Immune system disorders: number of subjects (through Week 56) | Influenza like illness: number of subjects (through Week 56) | Insomnia: number of subjects (through Week 56) | Intertrigo: number of subjects (through Week 56) | Ketonuria: number of subjects (through Week 56) | Leukocyturia: number of subjects (through Week 56) | Leukopenia: number of subjects (through Week 56) | Libido decreased: number of subjects (through Week 56) | Liver disorder: number of subjects (through Week 56) | Lymphopenia: number of subjects (through Week 56) | Menopause: number of subjects (through Week 56) | Neoplasms benign, malignant and unspecified (incl cysts and polyps): number of subjects (through Week 56) | Nephrolithiasis: number of subjects (through Week 56) | Neutropenia: number of subjects (through Week 56) | Night sweats: number of subjects (through Week 56) | Non-cardiac chest pain: number of subjects (through Week 56) | Oedema peripheral: number of subjects (through Week 56) | Procedural pain: number of subjects (through Week 56) | Productive cough: number of subjects (through Week 56) | Proteinuria: number of subjects (through Week 56) | Pruritus: number of subjects (through Week 56) | Psoriasis: number of subjects (through Week 56) | Psychiatric disorders: number of subjects (through Week 56)
9: Subjects with treatment-emergent AE: Nasopharyngitis (Week 16-56)
2: Eye disorders: number of subjects (through Week 56)
(2.9%): Dermatitis acneiform: % of subjects (through Week 56) | Dysuria: % of subjects (through Week 56) | Haemochromatosis: % of subjects (through Week 56) | Hand dermatitis: % of subjects (through Week 56) | Hematuria: % of subjects (through Week 56) | Hepatobiliary disorders: % of subjects (through Week 56) | Hypertension: % of subjects (through Week 56) | Hypertransaminasemia: % of subjects (through Week 56) | Metabolism and nutrition disorders: % of subjects (through Week 56) | Ocular cyst: % of subjects (through Week 56) | Oropharyngeal pain: % of subjects (through Week 56)
1: Dermatitis acneiform: number of subjects (through Week 56) | Dysuria: number of subjects (through Week 56) | Haemochromatosis: number of subjects (through Week 56) | Hand dermatitis: number of subjects (through Week 56) | Hematuria: number of subjects (through Week 56) | Hepatobiliary disorders: number of subjects (through Week 56) | Hypertension: number of subjects (through Week 56) | Hypertransaminasemia: number of subjects (through Week 56) | Metabolism and nutrition disorders: number of subjects (through Week 56) | Ocular cyst: number of subjects (through Week 56) | Oropharyngeal pain: number of subjects (through Week 56)
(5.7%): Eye disorders: % of subjects (through Week 56)
